Reference: US9708314B2, “Heterocyclic amide compound” (NISSAN CHEMICAL INDUSTRIES, LTD., priority 2013, dated 2017)

Legend:
Assay type in all cases: in vivo
Leptochloa chinensis = assay: Test Example 3: herbicidal effect by application to foliage (Wagner pot, water depth 0.1-0.5 cm); conditions: Nineteenth Table; application to foliage; application herbicide amount 320 g/ha
Summary of the method: (§1)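 Three weeks after spraying, each species was graded 0–5 for herbicidal ratio, 5 being 90% or more. Application: water-diluted emulsifiable concentrate at a fixed g/ha to foliage of 14-day-old greenhouse (25–30 °C) plants in alluvial soil.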

[1] = system: Echinochloa crus-galli var. crus-galli; assay: as above; conditions: Nineteenth Table; application to foliage; application herbicide amount 320 g/ha
Summary of the method: as §1

Cyperus difformis = assay: as above; conditions: Nineteenth Table; application to foliage; application herbicide amount 320 g/ha
Summary of the method: as §1

Brassica campestris L. = assay: Test Example 4: effect on crop by application to foliage (diluvial soil, plastic box); conditions: application to foliage, application herbicide amount 320 g/ha
Summary of the method: (§2)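 Plants were grown in sterilized diluvial soil in a greenhouse at 25-30° C for 14 days, then sprayed on stems and leaves with water-diluted emulsion formulation at set rates in g/ha. Weed control and crop injury were scored 3 weeks after treatment on a 0-5 herbicidal-ratio scale, from 0 (≤5%) to 5 (≥90%).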

Zea mays = assay: as above; conditions: application to foliage, application herbicide amount 320 g/ha
Summary of the method: as §2

[2] = system: Beta vulgaris ssp. vulgaris; assay: as above; conditions: application to foliage, application herbicide amount 320 g/ha
Summary of the method: as §2

Triticum aestivum = assay: as above; conditions: application to foliage, application herbicide amount 320 g/ha
Summary of the method: as §2

Glycine max = assay: as above; conditions: application to foliage, application herbicide amount 320 g/ha
Summary of the method: as §2

[3] = system: directly sowed Oryza sativa; assay: as above; conditions: application to foliage, application herbicide amount 320 g/ha
Summary of the method: as §2

Stellaria media = assay: Test Example 4: herbicidal effect by application to foliage (diluvial soil, plastic box); conditions: application to foliage, application herbicide amount 320 g/ha
Summary of the method: as §2

Lolium multiflorum Lam. = assay: as above; conditions: application to foliage, application herbicide amount 320 g/ha
Summary of the method: as §2

[4] = system: Echinochloa crus-galli var. crus-galli; assay: as above; conditions: application to foliage, application herbicide amount 320 g/ha
Summary of the method: as §2

Alopecurus myosuroides = assay: as above; conditions: application to foliage, application herbicide amount 320 g/ha
Summary of the method: as §2

Avena fatua = assay: as above; conditions: application to foliage, application herbicide amount 320 g/ha
Summary of the method: as §2

Setaria viridis = assay: as above; conditions: application to foliage, application herbicide amount 320 g/ha
Summary of the method: as §2

Chenopodium album = assay: as above; conditions: application to foliage, application herbicide amount 320 g/ha
Summary of the method: as §2

Abutilon theophrasti = assay: as above; conditions: application to foliage, application herbicide amount 320 g/ha
Summary of the method: as §2

Digitaria ciliaris = assay: as above; conditions: application to foliage, application herbicide amount 320 g/ha
Summary of the method: as §2

Galium spurium = assay: as above; conditions: application to foliage, application herbicide amount 320 g/ha
Summary of the method: as §2

Veronica persica = assay: as above; conditions: application to foliage, application herbicide amount 320 g/ha
Summary of the method: as §2

Apera spica-venti. = assay: as above; conditions: application to foliage, application herbicide amount 320 g/ha
Summary of the method: as §2

Amaranthus retroflexus = assay: as above; conditions: application to foliage, application herbicide amount 320 g/ha
Summary of the method: as §2

Structure (SMILES)	D (herbicidal effect grade) (Leptochloa chinensis)	H (herbicidal effect grade) [1]	g: effect on crop, Brassica campestris L. (Brassica campestris L.)	c: effect on crop, Zea mays (Zea mays)	f: effect on crop, Beta vulgaris ssp. vulgaris [2]	e: effect on crop, Triticum aestivum (Triticum aestivum)	d: effect on crop, Glycine max (Glycine max)	b: effect on crop, directly sowed Oryza sativa [3]	P: herbicidal effect on Stellaria media (Stellaria media)	K: herbicidal effect on Lolium multiflorum Lam. (Lolium multiflorum Lam.)	H: herbicidal effect on Echinochloa crus-galli var. crus-galli [4]	J: herbicidal effect on Alopecurus myosuroides (Alopecurus myosuroides)	I: herbicidal effect on Avena fatua (Avena fatua)	G: herbicidal effect on Setaria viridis (Setaria viridis)	O: herbicidal effect on Chenopodium album (Chenopodium album)	M: herbicidal effect on Abutilon theophrasti (Abutilon theophrasti)	F: herbicidal effect on Digitaria ciliaris (Digitaria ciliaris)	Q: herbicidal effect on Galium spurium (Galium spurium)	L: herbicidal effect on Apera spica-venti. (Apera spica-venti.)	N: herbicidal effect on Amaranthus retroflexus (Amaranthus retroflexus)	other results
C=CCc1nnc2c(C(=O)Nc3nnco3)ccc(C(F)(F)F)n12 [1-158]	4 (Herbicidal ratio of 70% or more and less than 90%)	5 (Herbicidal ratio of 90% or more (almost completely withered))	3 (Herbicidal ratio of 40% or more and less than 70%)	0 (Herbicidal ratio of 5% or less (almost no effect))	5 (Herbicidal ratio of 90% or more (almost completely withered))	2 (Herbicidal ratio of 20% or more and less than 40%)	4 (Herbicidal ratio of 70% or more and less than 90%)	0 (Herbicidal ratio of 5% or less (almost no effect))	5 (Herbicidal ratio of 90% or more (almost completely withered))	2 (Herbicidal ratio of 20% or more and less than 40%)	5 (Herbicidal ratio of 90% or more (almost completely withered))	1 (Herbicidal ratio of 5% or more and less than 20%)	3 (Herbicidal ratio of 40% or more and less than 70%)	4 (Herbicidal ratio of 70% or more and less than 90%)	5 (Herbicidal ratio of 90% or more (almost completely withered))	4 (Herbicidal ratio of 70% or more and less than 90%)	5 (Herbicidal ratio of 90% or more (almost completely withered))	3 (Herbicidal ratio of 40% or more and less than 70%)	3 (Herbicidal ratio of 40% or more and less than 70%)	4 (Herbicidal ratio of 70% or more and less than 90%)	E (herbicidal effect grade) (Cyperus difformis): 4 (Herbicidal ratio of 70% or more and less than 90%); R: herbicidal effect on Veronica persica (Veronica persica): 4 (Herbicidal ratio of 70% or more and less than 90%)
C=CCN(C)c1nnc2c(C(=O)Nc3nnc(C)o3)ccc(C(F)(F)F)n12 [1-166]	3 (Herbicidal ratio of 40% or more and less than 70%)	4 (Herbicidal ratio of 70% or more and less than 90%)	4 (Herbicidal ratio of 70% or more and less than 90%)	0 (Herbicidal ratio of 5% or less (almost no effect))	5 (Herbicidal ratio of 90% or more (almost completely withered))	0 (Herbicidal ratio of 5% or less (almost no effect))	4 (Herbicidal ratio of 70% or more and less than 90%)	0 (Herbicidal ratio of 5% or less (almost no effect))	4 (Herbicidal ratio of 70% or more and less than 90%)	1 (Herbicidal ratio of 5% or more and less than 20%)	5 (Herbicidal ratio of 90% or more (almost completely withered))	0 (Herbicidal ratio of 5% or less (almost no effect))	1 (Herbicidal ratio of 5% or more and less than 20%)	4 (Herbicidal ratio of 70% or more and less than 90%)	5 (Herbicidal ratio of 90% or more (almost completely withered))	3 (Herbicidal ratio of 40% or more and less than 70%)	5 (Herbicidal ratio of 90% or more (almost completely withered))	1 (Herbicidal ratio of 5% or more and less than 20%)	1 (Herbicidal ratio of 5% or more and less than 20%)	4 (Herbicidal ratio of 70% or more and less than 90%)	–
